Data on 22 molecules can be found in US12479827B2, “Heteroaromatic carboxamide derivatives as plasma kallikrein inhibitors” (Boehringer Ingelheim International GmbH, priority 2020, dated 2025).

One experiment has as its target T1, Human PKK (Homo sapiens, UniProt P03952).
T1 construct: purchased Enzyme Research Laboratories
The experiment is described as follows: Inhibition of PKK using an endpoint assay (human PKK). The format is biochemical. The following applies: fluorogenic substrate H-Pro-Phe-Arg-AMC, 1 h room temperature, method names human or rat PKK, table does not say which. In a few lines: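 Endpoint fluorescence (ex 355 nm, em 460 nm) after stopping with 1 μM final PPACK II. Buffer: Tris 100 mM pH 7.8, NaCl 150 mM, BSA 0.1%, Tween20 0.05%, with 1% DMSO present; enzyme is human plasma kallikrein.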

The target of experiment [1] is T2, PKK in kaolin activated human platelet poor plasma (Homo sapiens, UniProt P03952).
T2 construct: Platelet poor plasma (PPP) obtained from human wholeblood; from tissue
T2 sequence (P03952 391-638 limits assumed): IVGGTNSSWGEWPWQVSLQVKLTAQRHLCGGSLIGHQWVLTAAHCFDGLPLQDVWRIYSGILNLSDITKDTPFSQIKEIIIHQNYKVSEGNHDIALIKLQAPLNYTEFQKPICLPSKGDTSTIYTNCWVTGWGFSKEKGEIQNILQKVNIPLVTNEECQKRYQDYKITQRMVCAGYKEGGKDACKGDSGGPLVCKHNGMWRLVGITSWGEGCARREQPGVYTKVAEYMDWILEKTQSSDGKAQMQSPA
T2 sequence (P03952 20-390 limits assumed): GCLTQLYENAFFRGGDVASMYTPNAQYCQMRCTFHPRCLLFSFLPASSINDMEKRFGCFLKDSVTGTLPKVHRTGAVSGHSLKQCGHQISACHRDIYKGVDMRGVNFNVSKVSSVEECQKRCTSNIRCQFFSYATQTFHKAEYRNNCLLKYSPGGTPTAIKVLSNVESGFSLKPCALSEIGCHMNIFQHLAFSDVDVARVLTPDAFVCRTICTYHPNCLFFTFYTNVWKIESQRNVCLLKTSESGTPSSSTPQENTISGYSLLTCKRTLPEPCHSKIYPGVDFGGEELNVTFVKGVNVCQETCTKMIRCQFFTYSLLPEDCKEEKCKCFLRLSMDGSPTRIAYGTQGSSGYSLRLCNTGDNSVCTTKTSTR
The experiment can be described thus: Inhibition of PKK in kaolin activated human PPP.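 Further: readout is the rate of fluorogenic substrate cleavage in rfu per min.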 The format is biochemical. The conditions noted are these: 25-750 μg/mL kaolin, global fit, text b200 calls the values IC90. The method, then:
Platelet poor plasma (PPP) obtained from human wholeblood, anticoagulated with Na-Citrate, is incubated with various concentrations of the test compound together with either 25, 75, 250, or 750 μg/mL kaolin in assay buffer for 20 min at 37° C. such that for each kaolin dose used a concentration response is obtained for the test compound.

pIC50: −log10 of the molar value.

T1 sequence (P03952 20-390 limits assumed): as above
T1 sequence (P03952 391-638 limits assumed): as the sequence (P03952 391-638 limits assumed) above

For `Cn1cnc2c1CC[C@H]2NC(=O)c1cnn(Cc2ccc(N3CC4C(C3)C4(F)F)nc2Br)c1` (stereo partly drawn) [Example 15, 1-[(2-Bromo-6-{6,6-difluoro-3-azabicyclo-[3.1.0]hexan-3-yl}pyridin-3-yl)methyl]-N-[(4R)-1-methyl-1H,4H,5H,6H-cyclopenta[d]imidazol-4-yl]-1H-pyrazole-4-carboxamide], the results for the negative logarithm of the IC50 (pIC50) (on Human PKK; in experiment [1]) were 8.96 and 6.38, respectively.

`Cn1cnc2c1CC[C@H]2NC(=O)c1cn(Cc2ccc(N3CC4CC4C3)nc2F)nn1` (stereo partly drawn) [Example 17, 1-[(6-{3-Azabicyclo[3.1.0]hexan-3-yl}-2-fluoropyridin-3-yl)methyl]-N-[(4R)-1-methyl-1H,4H,5H,6H-cyclo-penta[d]imidazol-4-yl]-1H-1,2,3-triazole-4-carboxamide]: the negative-log IC50 (pIC50) on Human PKK was 8.70; in experiment [1], 6.09.

For `Cn1cnc2c1CC[C@H]2NC(=O)c1cnn(Cc2ccc(N3CC4C(C3)C4(F)F)nc2F)c1` (stereo partly drawn) [Example 18, 1-[(6-{6,6-Difluoro-3-azabicyclo[3.1.0]hexan-3-yl}-2-fluoropyridin-3-yl)methyl]-N-[(4R)-1-methyl-1H,4H,5H,6H-cyclopenta[d]imidazol-4-yl]-1H-pyrazole-4-carboxamide], the negative-log IC50 (pIC50) at Human PKK was 8.68; in experiment [1], 6.34.

Take `Cn1cnc2c1CC[C@H]2NC(=O)c1cn(Cc2ccc(N3CC4(CC4)C3)nc2Cl)cn1` [Example 21, 1-[(6-{5-Azaspiro[2.3]hexan-5-yl}-2-chloropyridin-3-yl)methyl]-N-[(4R)-1-methyl-1H,4H,5H,6H-cyclopenta[d]imidazol-4-yl]-1H-imidazole-4-carboxamide]: the results for the pIC50 (at Human PKK; in experiment [1]) were 9.05 and 6.49, respectively.

With `Cn1cnc2c1CC[C@H]2NC(=O)c1cn(Cc2ccc(N3CC4C(C3)C4(F)F)nc2F)nn1` (stereo partly drawn) [Example 25, 1-[(6-{6,6-Difluoro-3-azabicyclo[3.1.0]hexan-3-yl}-2-fluoropyridin-3-yl)methyl]-N-[(4R)-1-methyl-1H,4H,5H,6H-cyclopenta[d]imidazol-4-yl]-1H-1,2,3-triazole-4-carboxamide], the negative logarithm of the IC50 (pIC50) was 8.70 at Human PKK and 6.54 in experiment [1].

For the molecule `Cn1cnc2c1CC[C@H]2NC(=O)c1cn(Cc2ccc(N3CC4(CC4)C3)nc2)nn1` [Example 26, 1-[(6-{5-Azaspiro[2.3]hexan-5-yl}pyridin-3-yl)-methyl]-N-[(4R)-1-methyl-1H,4H,5H,6H-cyclopenta[d]imidazol-4-yl]-1H-1,2,3-triazole-4-carboxamide], the pIC50 on Human PKK was 8.31; in experiment [1], 6.46.

As for `Cn1cnc2c1CC[C@H]2NC(=O)c1cn(Cc2ccc(N3CC4C(C3)C4(F)F)nc2Br)cn1` (stereo partly drawn) [Example 28, 1-[(2-Bromo-6-{6,6-difluoro-3-azabicyclo-[3.1.0]hexan-3-yl}pyridin-3-yl)methyl]-N-[(4R)-1-methyl-1H,4H,5H,6H-cyclopenta[d]imidazol-4-yl]-1H-imidazole-4-carboxamide], the negative logarithm of the IC50 (pIC50) was 9.22 on Human PKK and 6.74 in experiment [1].

On to `Cn1cnc2c1CC[C@H]2NC(=O)c1cn(Cc2cnc(N3CC4CC4C3)nc2C(F)F)cn1` (stereo partly drawn) [Example 29, 1-[(2-{3-Azabicyclo[3.1.0]hexan-3-yl}-4-(difluoromethyl)-pyrimidin-5-yl)methyl]-N-[(4R)-1-methyl-1H,4H,5H,6H-cyclopenta[d]imidazol-4-yl]-1H-imidazole-4-carboxamide], for which the pIC50 against Human PKK is 8.59; in experiment [1] it was 6.47.

As to `Cn1cnc2c1CC[C@H]2NC(=O)c1cn(Cc2ccc(N3CC4CC4C3)nc2C(F)F)nn1` (stereo partly drawn) [Example 30, 1-[(6-{3-Azabicyclo[3.1.0]hexan-3-yl}-2-(difluoromethyl)-pyridin-3-yl)methyl]-N-[(4R)-1-methyl-1H,4H,5H,6H-cyclo-penta[d]imidazol-4-yl]-1H-1,2,3-triazole-4-carboxamide], the pIC50 against Human PKK is 9.05; in experiment [1], 6.48.

In the case of `CCCc1nc(N2CC3CC3C2)ccc1Cn1cnc(C(=O)N[C@@H]2CCc3c2ncn3C)c1` (stereo partly drawn) [Example 31, 1-[(6-{3-Azabicyclo[3.1.0]hexan-3-yl}-2-propylpyridin-3-yl)methyl]-N-[(4R)-1-methyl-1H,4H,5H,6H-cyclopenta[d]imidazol-4-yl]-1H-imidazole-4-carboxamide], the pIC50 was 8.28 against Human PKK and 6.01 in experiment [1].

Consider `Cn1cnc2c1CC[C@H]2NC(=O)c1cn(Cc2ccc(N3CC4CC4C3)nc2Cl)nn1` (stereo partly drawn) [Example 32, 1-[(6-{3-Azabicyclo[3.1.0]hexan-3-yl}-2-chloropyridin-3-yl)methyl]-N-[(4R)-1-methyl-1H,4H,5H,6H-cyclopenta-[d]imidazol-4-yl]-1H-1,2,3-triazole-4-carboxamide], for which the results for the pIC50 (on Human PKK; in experiment [1]) were 8.96 and 6.26, respectively.

For `Cn1cnc2c1CC[C@H]2NC(=O)c1cn(Cc2ccc(N3CC4C(C3)C4(F)F)nc2)nn1` (stereo partly drawn) [Example 33, 1-[(6-{6,6-Difluoro-3-azabicyclo[3.1.0]hexan-3-yl}pyridin-3-yl)methyl]-N-[(4R)-1-methyl-1H,4H,5H,6H-cyclo-penta[d]imidazol-4-yl]-1H-1,2,3-triazole-4-carboxamide], the pIC50 is 8.60 against Human PKK and 6.58 in experiment [1].

As for `Cn1cnc2c1CC[C@H]2NC(=O)c1cn(Cc2ccc(N3CC4CC4C3)nc2Br)nn1` (stereo partly drawn) [Example 34, 1-[(6-{3-Azabicyclo[3.1.0]hexan-3-yl}-2-bromopyridin-3-yl)methyl]-N-[(4R)-1-methyl-1H,4H,5H,6H-cyclopenta-[d]imidazol-4-yl]-1H-1,2,3-triazole-4-carboxamide], the values for the pIC50 (on Human PKK; in experiment [1]) were 9.05 and 5.92, respectively.

Turning to `Cn1cnc2c1CC[C@H]2NC(=O)c1cnn(Cc2ccc(N3CC4CC4C3)c(C#N)n2)c1` (stereo partly drawn) [Example 35, 1-[(5-{3-Azabicyclo[3.1.0]hexan-3-yl}-6-cyanopyridin-2-yl)methyl]-N-[(4R)-1-methyl-1H,4H,5H,6H-cyclopenta[d]imidazol-4-yl]-1H-pyrazole-4-carboxamide], the values for the negative-log IC50 (pIC50) (against Human PKK; in experiment [1]) were 8.66 and 6.59, respectively.

In the case of `CCc1nc(N2CC3(CC3)C2)ccc1Cn1cnc(C(=O)N[C@@H]2CCc3c2ncn3C)c1` [Example 37, 1-[(6-{5-Azaspiro[2.3]hexan-5-yl}-2-ethylpyridin-3-yl)methyl]-N-[(4R)-1-methyl-1H,4H,5H,6H-cyclopenta[d]imidazol-4-yl]-1H-imidazole-4-carboxamide], the negative logarithm of the IC50 (pIC50) on Human PKK is 9.05; in experiment [1] it was 6.90.

Take `Cn1cnc2c1CC[C@H]2NC(=O)c1cn(Cc2ccc(N3CC4CC4C3)nc2Br)cn1` (stereo partly drawn) [Example 39, 1-[(6-{3-Azabicyclo[3.1.0]hexan-3-yl}-2-bromopyridin-3-yl)methyl]-N-[(4R)-1-methyl-1H,4H,5H,6H-cyclopenta[d]imidazol-4-yl]-1H-imidazole-4-carboxamide]: the pIC50 against Human PKK was 9.15; in experiment [1] it was 6.42.

As for `Cn1cnc2c1CC[C@H]2NC(=O)c1cnn(Cc2ccc(N3CC4CC4C3)nc2Br)c1` (stereo partly drawn) [Example 40, 1-[(6-{3-Azabicyclo[3.1.0]hexan-3-yl}-2-bromopyridin-3-yl)methyl]-N-[(4R)-1-methyl-1H,4H,5H,6H-cyclopenta[d]imidazol-4-yl]-1H-pyrazole-4-carboxamide], the negative logarithm of the IC50 (pIC50) against Human PKK is 8.92; in experiment [1], 6.27.

As to `Cn1cnc2c1CC[C@H]2NC(=O)c1cnn(Cc2ccc(N3CC4C(C3)C4(F)F)cn2)c1` (stereo partly drawn) [Example 41, 1-[(5-{6,6-Difluoro-3-azabicyclo[3.1.0]hexan-3-yl}pyridin-2-yl)methyl]-N-[(4R)-1-methyl-1H,4H,5H,6H-cyclopenta[d]imidazol-4-yl]-1H-pyrazole-4-carboxamide], the pIC50 against Human PKK was 8.47; in experiment [1], 6.31.

With `Cn1cnc2c1CC[C@H]2NC(=O)c1cnn(Cc2ccc(N3CC4CC4C3)nc2C2(C#N)CC2)c1` (stereo partly drawn) [Example 42, 1-[(6-{3-Azabicyclo[3.1.0]hexan-3-yl}-2-(1-cyanocyclopro-pyl)-pyridin-3-yl)methyl]-N-[(4R)-1-methyl-1H,4H,5H,6H-cyclopenta[d]imidazol-4-yl]-1H-pyrazole-4-carboxamide], the negative logarithm of the IC50 (pIC50) against Human PKK was 9.22; in experiment [1], 6.71.

With `Cn1cnc2c1CC[C@H]2NC(=O)c1cnn(Cc2ccc(N3CC4CC4C3)nc2C(F)F)c1` (stereo partly drawn) [Example 43, 1-[(6-{3-Azabicyclo[3.1.0]hexan-3-yl}-2-(difluoromethyl)-pyridin-3-yl)methyl]-N-[(4R)-1-methyl-1H,4H,5H,6H-cyclopenta[d]imidazol-4-yl]-1H-pyrazole-4-carboxamide], the pIC50 against Human PKK is 9.05; in experiment [1], 6.51.

Regarding `Cn1cnc2c1CC[C@H]2NC(=O)c1cnn(Cc2ccc(N3CC4C(C3)C4(F)F)nc2Cl)c1` (stereo partly drawn) [Example 44, 1-[(2-Chloro-6-{6,6-difluoro-3-azabicyclo-[3.1.0]hexan-3-yl}pyridin-3-yl)methyl]-N-[(4R)-1-methyl-1H,4H,5H,6H-cyclopenta[d]imidazol-4-yl]-1H-pyrazole-4-carboxamide], the figures for the negative logarithm of the IC50 (pIC50) (against Human PKK; in experiment [1]) were 8.74 and 6.35, respectively.

`Cn1cnc2c1CC[C@H]2NC(=O)c1cn(Cc2ccc(N3CC4C(C3)C4(F)F)nc2C(F)F)cn1` (stereo partly drawn) [Example 45, 1-[(6-{6,6-Difluoro-3-azabicyclo[3.1.0]hexan-3-yl}-2-(difluoromethyl)pyridin-3-yl)methyl]-N-[(4R)-1-methyl-1H,4H,5H,6H-cyclopenta-[d]imidazol-4-yl]-1H-imidazole-4-carboxamide]: the pIC50 against Human PKK is 9.15; in experiment [1], 6.82.
